Assay results published in ChEMBL document CHEMBL1201862, “PubChem BioAssay data set” (2004).
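Each compound was tested at five concentrations against cells in 96-well plates for 48 hours. The concentration for 50% growth inhibition is given as GI50.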 The source made the active and inactive calls. Rule as the data show it: active = GI50 up to about 1.1 µM and inactive = higher.

Experiments:
Experiment in all cases: NCI-60 cell line screen, 48 h
M14 = test system: M14
A549 = test system: A549
NCI-H23 = test system: NCI-H23
MDA-MB-435 = test system: MDA-MB-435
Hs-578T = test system: Hs-578T
SNB-75 = test system: SNB-75
UO-31 = test system: UO-31
ACHN = test system: ACHN
HT-29 = test system: HT-29
OVCAR-5 = test system: OVCAR-5
UACC-62 = test system: UACC-62
HOP-62 = test system: HOP-62
PC-3 = test system: PC-3
NCI-H522 = test system: NCI-H522
SK-OV-3 = test system: SK-OV-3
COLO 205 = test system: COLO 205
EKVX = test system: EKVX
A498 = test system: A498
SF-295 = test system: SF-295
TK-10 = test system: TK-10

SMILES | GI50 (M14) | GI50 (A549) | GI50 (NCI-H23) | GI50 (MDA-MB-435) | GI50 (Hs-578T) | GI50 (SNB-75) | GI50 (UO-31) | GI50 (ACHN) | GI50 (HT-29) | GI50 (OVCAR-5) | GI50 (UACC-62) | GI50 (HOP-62) | GI50 (PC-3) | GI50 (NCI-H522) | GI50 (SK-OV-3) | GI50 (COLO 205) | GI50 (EKVX) | GI50 (A498) | GI50 (SF-295) | GI50 (TK-10)
NC(=S)N/N=C/c1c[nH]c2ccccc12 | > 100 µM (inactive) | > 100 µM (inactive) | > 100 µM (inactive) | > 100 µM (inactive) | > 100 µM (inactive) | 41.9 µM (inactive) | > 100 µM (inactive) | > 100 µM (inactive) | > 100 µM (inactive) | > 100 µM (inactive) | > 100 µM (inactive) | > 100 µM (inactive) | > 100 µM (inactive) | 52.5 µM (inactive) | > 100 µM (inactive) | > 100 µM (inactive) | 2.86 µM (inactive) | > 100 µM (inactive) | > 100 µM (inactive) | > 100 µM (inactive)
Cc1ccc(/N=N/c2c(O)c(C(=O)Nc3ccccc3)cc3ccccc23)c([N+](=O)[O-])c1 | > 100 µM (inactive) | > 100 µM (inactive) | > 100 µM (inactive) | > 100 µM (inactive) | > 100 µM (inactive) | > 100 µM (inactive) | > 100 µM (inactive) | > 100 µM (inactive) | > 100 µM (inactive) | > 100 µM (inactive) | > 100 µM (inactive) | > 100 µM (inactive) | > 100 µM (inactive) | > 100 µM (inactive) | > 100 µM (inactive) | > 100 µM (inactive) | > 100 µM (inactive) | > 100 µM (inactive) | 70.8 µM (inactive) | > 100 µM (inactive)
COc1cc(Nc2cnc3cc(F)c(F)cc3n2)cc(OC)c1 | > 100 µM (inactive) | > 100 µM (inactive) | 20.8 µM (inactive) | > 100 µM (inactive) | 37.7 µM (inactive) | 18.9 µM (inactive) | > 100 µM (inactive) | > 100 µM (inactive) | > 100 µM (inactive) | > 100 µM (inactive) | 18.2 µM (inactive) | 25.9 µM (inactive) | > 100 µM (inactive) | 11.4 µM (inactive) | 21.3 µM (inactive) | > 100 µM (inactive) | > 100 µM (inactive) | 53.6 µM (inactive) | 36 µM (inactive) | > 100 µM (inactive)
C/C(=N\NC(=N)N)C(CN(C)C)C(c1ccccc1)c1c(O)c2ccccc2oc1=O (stereo not given) | > 100 µM (inactive) | > 100 µM (inactive) | > 100 µM (inactive) | > 100 µM (inactive) | > 100 µM (inactive) | 98.4 µM (inactive) | > 100 µM (inactive) | > 100 µM (inactive) | > 100 µM (inactive) | > 100 µM (inactive) | > 47.6 µM (inactive) | > 26.6 µM (inactive) | > 100 µM (inactive) | > 100 µM (inactive) | > 100 µM (inactive) | > 100 µM (inactive) | > 100 µM (inactive) | > 100 µM (inactive) | > 100 µM (inactive) | > 100 µM (inactive)
COc1ccc2[nH]cc(C=C3C(=O)NC(=S)NC3=O)c2c1 | > 100 µM (inactive) | > 100 µM (inactive) | 31.2 µM (inactive) | > 100 µM (inactive) | 45.8 µM (inactive) | 23.1 µM (inactive) | > 100 µM (inactive) | > 100 µM (inactive) | > 100 µM (inactive) | > 100 µM (inactive) | > 100 µM (inactive) | 45.9 µM (inactive) | > 100 µM (inactive) | > 100 µM (inactive) | 52.2 µM (inactive) | > 100 µM (inactive) | > 100 µM (inactive) | > 100 µM (inactive) | 94.8 µM (inactive) | 38.9 µM (inactive)
CC(C)=CCc1ccc2[nH]c3c(c2c1)C(=O)C(=O)C(C)=C3C(O)C(C)O (stereo not given) | 1.91 µM (inactive) | 21.8 µM (inactive) | 5.4 µM (inactive) | 2.85 µM (inactive) | 15.1 µM (inactive) | 17.7 µM (inactive) | 1.55 µM (inactive) | 4.27 µM (inactive) | 9.33 µM (inactive) | 18.4 µM (inactive) | 5.52 µM (inactive) | 20.3 µM (inactive) | 9.57 µM (inactive) | 1.69 µM (inactive) | 16.2 µM (inactive) | 2.16 µM (inactive) | 16.1 µM (inactive) | 12.5 µM (inactive) | 12.2 µM (inactive) | 2.52 µM (inactive)
CN(C)c1nc(N)nc(CS)n1 | > 100 µM (inactive) | 51.3 µM (inactive) | > 100 µM (inactive) | > 100 µM (inactive) | > 100 µM (inactive) | > 100 µM (inactive) | > 100 µM (inactive) | > 100 µM (inactive) | > 100 µM (inactive) | > 100 µM (inactive) | 61.4 µM (inactive) | 56.1 µM (inactive) | 54.3 µM (inactive) | > 100 µM (inactive) | > 100 µM (inactive) | > 100 µM (inactive) | > 100 µM (inactive) | > 100 µM (inactive) | 52.4 µM (inactive) | > 100 µM (inactive)
O=c1cc(N2CCOCC2)n2c(ccc3ccccc32)n1 | > 100 µM (inactive) | > 100 µM (inactive) | > 100 µM (inactive) | > 100 µM (inactive) | > 100 µM (inactive) | > 100 µM (inactive) | > 100 µM (inactive) | > 100 µM (inactive) | > 100 µM (inactive) | > 100 µM (inactive) | > 100 µM (inactive) | > 100 µM (inactive) | > 100 µM (inactive) | > 100 µM (inactive) | > 100 µM (inactive) | > 100 µM (inactive) | > 100 µM (inactive) | > 100 µM (inactive) | > 100 µM (inactive) | > 100 µM (inactive)
CC1=NN(c2cccc(S(=O)(=O)O)c2)C2(C1)C(Cl)C(=O)N2c1nc2ccccc2s1 (stereo not given) | 8.65 µM (inactive) | 8.61 µM (inactive) | 4.61 µM (inactive) | 6.85 µM (inactive) | 11.7 µM (inactive) | 4.05 µM (inactive) | 3.55 µM (inactive) | 6.81 µM (inactive) | 7.98 µM (inactive) | 13.4 µM (inactive) | 6.81 µM (inactive) | 5.75 µM (inactive) | 10.5 µM (inactive) | 1.81 µM (inactive) | 11.2 µM (inactive) | 8.3 µM (inactive) | 8.53 µM (inactive) | 18.2 µM (inactive) | 13.8 µM (inactive) | 14.2 µM (inactive)
O=C1C(=CNc2ccc([N+](=O)[O-])cc2)C(=O)N(c2ccccc2)C(=O)N1c1ccccc1 | 73.1 µM (inactive) | > 100 µM (inactive) | > 100 µM (inactive) | > 100 µM (inactive) | > 100 µM (inactive) | 71.6 µM (inactive) | > 100 µM (inactive) | 64.7 µM (inactive) | > 100 µM (inactive) | > 100 µM (inactive) | 41.3 µM (inactive) | > 100 µM (inactive) | > 100 µM (inactive) | > 100 µM (inactive) | > 100 µM (inactive) | > 100 µM (inactive) | > 100 µM (inactive) | > 100 µM (inactive) | 66.2 µM (inactive) | 25.5 µM (inactive)
CN(CCNC(=O)c1nn(-c2ccc(Cl)cc2Cl)c2c1Cc1ccccc1-2)CCNC(=O)c1nn(-c2ccc(Cl)cc2Cl)c2c1Cc1ccccc1-2 | 1.81 µM (inactive) | 3.29 µM (inactive) | 5.09 µM (inactive) | 1.51 µM (inactive) | 1.53 µM (inactive) | 5.21 µM (inactive) | 2.94 µM (inactive) | 4.53 µM (inactive) | 2.19 µM (inactive) | 20 µM (inactive) | 1.85 µM (inactive) | 5.21 µM (inactive) | 5.87 µM (inactive) | 1.58 µM (inactive) | 15.7 µM (inactive) | 1.81 µM (inactive) | 20 µM (inactive) | 5.14 µM (inactive) | 2.43 µM (inactive) | 6.31 µM (inactive)
CCOC(=O)/C=C(/C(=O)OCC)n1ccc(=O)[nH]c1=O | 3.83 µM (inactive) | 18 µM (inactive) | 10.4 µM (inactive) | 10.8 µM (inactive) | 17.9 µM (inactive) | 14 µM (inactive) | 14 µM (inactive) | 3.99 µM (inactive) | 10.9 µM (inactive) | 5.93 µM (inactive) | 11.8 µM (inactive) | 19.6 µM (inactive) | 13.8 µM (inactive) | 0.726 µM (active) | 18.7 µM (inactive) | 1.65 µM (inactive) | 4.86 µM (inactive) | 20.6 µM (inactive) | 18.7 µM (inactive) | 3.73 µM (inactive)
CCN(CC)CCc1c2c(nc3ccccc13)C(=O)c1cccnc1C2=O | 0.454 µM (active) | 2.88 µM (inactive) | 3.08 µM (inactive) | 1.93 µM (inactive) | 4.99 µM (inactive) | 5.65 µM (inactive) | 1.57 µM (inactive) | 0.719 µM (active) | 3.31 µM (inactive) | 4.63 µM (inactive) | 1.54 µM (inactive) | 2.44 µM (inactive) | 2.82 µM (inactive) | 0.731 µM (active) | 1.09 µM (active) | 1.58 µM (inactive) | 2.89 µM (inactive) | 1.97 µM (inactive) | 2.02 µM (inactive) | 2.66 µM (inactive)
COc1ccc(C(CC(=O)c2ccc3c(c2)OCO3)c2c(O)oc3ccccc3c2=O)cc1OC (stereo not given) | 1 µM (active) | 51.1 µM (inactive) | 78 µM (inactive) | > 100 µM (inactive) | 45.8 µM (inactive) | > 100 µM (inactive) | 73.3 µM (inactive) | > 100 µM (inactive) | 72.6 µM (inactive) | > 100 µM (inactive) | 40.6 µM (inactive) | > 100 µM (inactive) | 88.5 µM (inactive) | > 100 µM (inactive) | > 100 µM (inactive) | 63.4 µM (inactive) | > 100 µM (inactive) | > 100 µM (inactive) | > 100 µM (inactive) | 67.8 µM (inactive)
